The experiment deals with gastric ulcer. The experiment is described as follows: Glacial acetic acid-induced gastric ulcer in SD rats. In kind it is in vivo. To be noted: 1.3 mg/kg, control group 2 continuous administration 15 d, treatment groups 10 d, three times a day. As to the method:
50 SD rats are used, made to starve for 24 h before testing. The abdominal cavity is opened under ether anesthesia, a glass tube with the inner diameter of 5 mm and the length of 30 mm is vertically placed on the surface of serosa of the gastric body and 0.2 ml of glacial acetic acid is added into the tube cavity. The glacial acetic acid is dipped out with a cotton swab after 5 min, and the surgical incision is sutured. Normal diet is permitted after the surgery, and animals are randomly divided into 5 groups on the next day: a control group 1 (distilled water), a control group 2 (pantoprazole sodium for injection), with continuous administration for 15 d, a treatment group 1 (embodiment 1), a treatment group 2 (embodiment 2) and a treatment group 3 (embodiment 3); and continuous administration is performed for 10 d, three times a day. The stomach is taken out by anatomy, fixed with formaldehyde, cut open along the greater curvature of the stomach and flat spread on a glass plate, and the transverse diameter d1 and the vertical diameter d2 of an ulcer are measured. The area of the ulcer S (mm2) is calculated according to a formula S=π×(d1/2)×(d2/2) to serve as an ulcer index, and ulcer healing rate and ulcer inhibition rate are calculated.

On to `COc1ccnc(C[S+]([O-])c2nc3cc(OC(F)F)ccc3[n-]2)c1OC.[Na+]` (stereo not shown) [Control group 2, 5-difluoromethoxy-2-[(3,4-dimethoxy-2-pyridinyl)methyl]sulfinyl-1H-benzimidazole], for which the Healing rate came to 90%; the “Number of healed animals” value was determined as 9; the “Ulcer index (x ± s), ulcer area S=π×(d1/2)×(d2/2)” value amounted to 6.3 ± 6.1 mm2; the Ulcer inhibition rate is listed as 65.1%.

Source of the values: US20160263094A1, “Pantoprazole Sodium Composition Lyophilized Powder for Injection” (priority 2013, published 2016).
